# Test results reported in patent US20130039904A1, “GAMBOGIC ACID CYCLIZATION ANALOGUES, THEIR PREPARATION METHOD AND APPLICATION THEREOF” (Liaoning Lifeng Scientific & Technology Development Company …, priority 2009, published 2013).
# Like-named read-outs stand apart in the source and are kept apart here.
# Legend:
# [1] = tested on: human colorectal cancer cell line HT29; experiment: In vitro anti-cancer cell experiment (MTT), HT29; format: cell-based; conditions: for anti-proliferative effect on HT29: HT29, in words; for IC50: Homo sapiens, HT-29
# Procedure: (§1) a. Cell lines: Human pancreatic cancer cell line Panc-1, human colorectal cancer cell line HT29 and human lung cancer cell line NCI—H460; the medium: s DMEM (Gibco BRL), containing 10% fetal calf serum (Gibco BRL) and 2 mM L-glutamine (Gibco BRL).
# (§2) b. Test samples: example compounds 5, 9, 10, 22 and 24. The samples were dissolved in dimethyl sulfoxide (DMSO, Sigma, United States) and medium was added to the final concentration of 0.5%. Cisplatin was as positive control of (CDDP, purity 96%, from Kunming Institute of Precious Metals).
# (§3) c. Method: cells were digested with trypsin and dispersed into single cells in the medium containing penicillin (25 U/ml) and streptomycin (25 μg/ml). The cells were seeded in 96-well culture plates (Corning Incorporated), at 37° C., in a humidified atmosphere with 5% CO2 present for 24 hours. The culture medium was removed, […] test compounds were added, cultured for 48 hours. Culture medium was removed and […] (MTT, USA Sigma products) was added. The result was assayed by SK601-based microplate reader (Japan Seikagaku company's products), 570 nm/630 nm optical density (OD).
# (§4) Calculation of cell viability: (Experimental group OD/control OD)×100%; Positive control CDDP was treated in the same way.
# [2] = tested on: mice sarcoma S180; experiment: Growth inhibition of S180 sarcoma in mice; format: in vivo, Kunming mice; design: Inhibition rate (%): concentration or dose not given beside the values; conditions: for anti-tumor efficacy, statistical significance: S180 sarcoma in mice, in words; for Tumor weight / Inhibition rate (%): S180 sarcoma, Kunming mice, iv; for Inhibition rate (%): *P<0.01, **p<0.001 vs control
# Procedure: (§5) Test animals: Kunming kinds of healthy mice (19-21 g), 10 mice (5 male and 5 female)/group, from Beijing Institute of Military Medical Sciences Animal Center.
# Tumor strains: mice sarcoma S180 for ascites passaged from Beijing Academy of Military Medical Institute of Pharmacology.
# (§6) Xenografts cultured S180 tumor cells were implanted subcutaneously into the flank region of mice and tumors were allowed to grow to the desired average size of 100 mg. The mice were randomized into control and treatment groups with 10 mice per group. The control group was injected with the vehicle used to dissolve the drug. Other groups received the test compounds (example compound 5, 9, 10, 11, 13, 18, 19, 22, 24, 35, 306 and positive group, cyclophosphamide (CTX) and 5-fluorouracil (5-FU)) at the dose and schedule as indicated in Table VI. Injections were I.V. via the tail vein.
# [3] = Body weight of S180 sarcoma-bearing mice; conditions: iv
# Procedure: as §5, §6
# [4] = tested on: Human pancreatic cancer cell line Panc-1; experiment: In vitro anti-cancer cell experiment (MTT), Panc-1; format: cell-based; conditions: for anti-proliferative effect on Panc-1: Panc-1, in words
# Procedure: as §1, §2, §3, §4
# [5] = tested on: human lung cancer cell line NCI-H460; experiment: In vitro anti-cancer cell experiment (MTT), NCI-H460; format: cell-based
# Procedure: as §1, §2, §3, §4
# [6] = HT29, text value, P<0.05, read-out: IC50 (anti-proliferative effect on HT29)
# [7] = HT29 cells, 48 hours, MTT, read-out: IC50 HT29
# [8] = NCI-H460, text value, P<0.05, read-out: IC50 (anti-proliferative effect on NCI-H460)
# [9] = NCI-H460 cells, 48 hours, MTT, read-out: IC50 NCI-H460
"IC50 [1, 6]","IC50 [1, 7]","IC50 ([4]; Homo sapiens, Panc-1, text value, P<0.05, read-out: IC50 (anti-proliferative effect on Panc-1))","IC50 [5, 8]","IC50 [5, 9]",SMILES,anti-proliferative effect on HT29 [1],"anti-tumor efficacy, statistical significance [2]",Tumor weight [2],Inhibition rate (%) [2],"body Weight (g) After ad. ([3]; mouse, in vivo)","body Weight (g) Before ad. ([3]; mouse, in vivo)",anti-proliferative effect on Panc-1 [4],"body Weight (g) After ad. ([3]; after administration, S180 mice)","body Weight (g) Before ad. ([3]; before administration, S180 mice)"
3.62 µg/mL,3.62 µg/mL,3.26 µg/mL,4.73 µg/mL,4.89 nM,COC(=O)/C(C)=C\CC12OC(C)(C)C3CC(C1=O)C1C4=C(c5ccccc5C4=O)N(CCN)C4=C1C32Oc1c(CC=C(C)C)c2c(c(O)c14)C=CC(C)(CCC=C(C)C)O2 (stereo not shown) [Compound 22],showed anti-proliferative effect,statistically significant,0.88 ± 0.37 g,53.19** %,25.77 ± 2.33 g,19.34 ± 0.81 g,showed anti-proliferative effect,,
1.03 µg/mL,1.03 µg/mL,,6.18 µg/mL,3.38 nM,COC(=O)/C(C)=C\CC12OC(C)(C)C3CC(C1=O)C1C4=C(Nc5nccn51)c1c(O)c5c(c(CC=C(C)C)c1OC432)OC(C)(CCC=C(C)C)C=C5 (stereo not shown) [Compound 9],showed anti-proliferative effect,statistically significant,0.56 ± 0.13 g,70.21** %,23.58 ± 1.86 g,20.53 ± 1.16 g,showed anti-proliferative effect,,
,,,,,"O=P1(N(CCCl)CCCl)NCCCO1 (stereo not shown) [CTX, cyclophosphamide, reference compound]",,,1.02 ± 0.88 g,46.5* %,,,,26.32 ± 3.58 g,21.48 ± 1.60 g
,,,,,COC(=O)/C(C)=C\CC12OC(C)(C)C3CC(C1=O)C1C4=C(Nc5nccn51)c1c(OCCNCCO)c5c(c(CC=C(C)C)c1OC432)OC(C)(CCC=C(C)C)C=C5 (stereo not shown) [Compound 35],,statistically significant,0.78 ± 0.33 g,59.25** %,26.86 ± 1.81 g,20.08 ± 1.92 g,,,
,14.4 µg/mL,,,,"O=c1[nH]cc(F)c(=O)[nH]1 [Compound 5-FU, 5-fluorouracil, reference compound]",,,1.18 ± 0.49 g,42.8* %,28.55 ± 2.38 g,22.59 ± 1.46 g,,,
,38.3 µg/mL,,,17.2 nM,COC(=O)/C(C)=C\CC12OC(C)(C)C3CC(C1=O)C1C4=C(Nc5nc6ccccc6n51)c1c(O)c5c(c(CC=C(C)C)c1OC432)OC(C)(CCC=C(C)C)C=C5 (stereo not shown) [Compound 10],showed anti-proliferative effect,,1.24 ± 0.73 g,39.36* %,25.12 ± 4.64 g,20.32 ± 1.22 g,showed anti-proliferative effect,,
,35.6 µg/mL,,,7.73 nM,COC(=O)/C(C)=C\CC12OC(C)(C)[C@H]3C[C@@H](C=C4C(=O)c5c(OC(=O)c6ccc(O[C@@H]7O[C@@H]8COC(C)(C)O[C@H]8[C@H](O)[C@H]7O)cc6)c6c(c(CC=C(C)C)c5OC431)OC(C)(CCC=C(C)C)C=C6)C2=O (stereo partly shown) [Compound 5],,,1.08 ± 0.63 g,45** %,27.39 ± 2.91 g,21.53 ± 1.77 g,,,
,,,,,COC(=O)/C(C)=C\CC12OC(C)(C)C3CC(C1=O)C1C4=C(c5ccccc5C4=O)N4CCNC45c4c(O)c6c(c(CC=C(C)C)c4OC32C15)OC(C)(CCC=C(C)C)C=C6 (stereo not shown) [Compound 306],,,1.29 ± 0.49 g,36.77* %,26.98 ± 3.02 g,20.75 ± 1.33 g,,,
,,,,,COC(=O)/C(C)=C\CC12OC(C)(C)C3CC(C1=O)C(N1CCOCC1)C1C(=O)c4c(OC(=O)CCl)c5c(c(CC=C(C)C)c4OC132)OC(C)(CCC=C(C)C)C=C5 (stereo not shown) [Compound 13],,,1.06 ± 0.70 g,45** %,27.59 ± 2.52 g,21.76 ± 1.93 g,,,
,,,,,COC(=O)/C(C)=C\CC12OC(C)(C)C3CC(C=C4C(=O)c5c(OC(=O)CCC(=O)N6CCN(C)CC6)c6c(c(CC=C(C)C)c5OC431)OC(C)(CCC=C(C)C)C=C6)C2=O (stereo not shown) [Compound 11],,,1.35 ± 0.59 g,31.01* %,26.30 ± 3.62 g,19.92 ± 1.47 g,,,
,,,,,COC(=O)/C(C)=C\CC12OC(C)(C)C3CC(C1=O)C1C4=C(Nc5ncnn51)c1c(O)c5c(c(CC=C(C)C)c1OC432)OC(C)(CCC=C(C)C)C=C5 (stereo not shown) [Compound 18],,,1.42 ± 0.52 g,25.26%,27.37 ± 3.92 g,20.16 ± 0.90 g,,,
,54.1 µg/mL,,,13.7 nM,COC(=O)/C(C)=C\CC12OC(C)(C)C3CC(C1=O)C1C4=C(Nc5nccn51)c1c(O[C@H]5O[C@@H](CO)[C@H](O)[C@@H](O)[C@@H]5O)c5c(c(CC=C(C)C)c1OC432)OC(C)(CCC=C(C)C)C=C5 (stereo partly shown) [Compound 24],showed anti-proliferative effect,statistically significant,0.65 ± 0.37 g,62.87** %,27.61 ± 2.89 g,20.71 ± 1.75 g,showed anti-proliferative effect,,
